# According to ChEMBL document CHEMBL1135112, “Shikonin derivatives: synthesis and inhibition of human telomerase” (Bioorg Med Chem Lett, 2002):
# The source made the active and inactive calls. The rule behind the calls is not given here.
# How the values were obtained:
# [1] = test system: HL-60; test: The compound was tested in vitro for its cytotoxicity against human HL-60 cancer cell line by MTT method at 1 uM concentration; No inhibition; assay type: functional, cell-based
# [2] = test system: P388; test: The compound was tested in vitro for its cytotoxicity against […] P-388 cancer cell line by MTT method at 1 uM concentration; No inhibition; assay type: functional, cell-based; conditions: Mus musculus
# [3] = test system: A549; test: The compound was tested in vitro for its cytotoxicity against human A-549 cancer cell line by MTT method at 1 uM concentration; No inhibition; assay type: functional, cell-based
# [4] = test system: A549; test: The compound was tested in vitro for its cytotoxicity against human A-549 cancer cell line by MTT method at 1 uM concentration; Slight inhibition; assay type: functional, cell-based
# [5] = test system: HL-60; test: The compound was tested in vitro for its cytotoxicity against human HL-60 cancer cell line by MTT method at 1 uM concentration; Slight inhibition; assay type: functional, cell-based
# [6] = test system: P388; test: The compound was tested in vitro for its cytotoxicity against […] P-388 cancer cell line by MTT method at 1 uM concentration; Slight inhibition; assay type: functional, cell-based; conditions: Mus musculus
# [7] = molecular target: Telomerase reverse transcriptase (Homo sapiens, UniProt O14746); test: Tested for 50% inhibition against Telomerase
# Telomerase reverse transcriptase, sequence (O14746 whole entry): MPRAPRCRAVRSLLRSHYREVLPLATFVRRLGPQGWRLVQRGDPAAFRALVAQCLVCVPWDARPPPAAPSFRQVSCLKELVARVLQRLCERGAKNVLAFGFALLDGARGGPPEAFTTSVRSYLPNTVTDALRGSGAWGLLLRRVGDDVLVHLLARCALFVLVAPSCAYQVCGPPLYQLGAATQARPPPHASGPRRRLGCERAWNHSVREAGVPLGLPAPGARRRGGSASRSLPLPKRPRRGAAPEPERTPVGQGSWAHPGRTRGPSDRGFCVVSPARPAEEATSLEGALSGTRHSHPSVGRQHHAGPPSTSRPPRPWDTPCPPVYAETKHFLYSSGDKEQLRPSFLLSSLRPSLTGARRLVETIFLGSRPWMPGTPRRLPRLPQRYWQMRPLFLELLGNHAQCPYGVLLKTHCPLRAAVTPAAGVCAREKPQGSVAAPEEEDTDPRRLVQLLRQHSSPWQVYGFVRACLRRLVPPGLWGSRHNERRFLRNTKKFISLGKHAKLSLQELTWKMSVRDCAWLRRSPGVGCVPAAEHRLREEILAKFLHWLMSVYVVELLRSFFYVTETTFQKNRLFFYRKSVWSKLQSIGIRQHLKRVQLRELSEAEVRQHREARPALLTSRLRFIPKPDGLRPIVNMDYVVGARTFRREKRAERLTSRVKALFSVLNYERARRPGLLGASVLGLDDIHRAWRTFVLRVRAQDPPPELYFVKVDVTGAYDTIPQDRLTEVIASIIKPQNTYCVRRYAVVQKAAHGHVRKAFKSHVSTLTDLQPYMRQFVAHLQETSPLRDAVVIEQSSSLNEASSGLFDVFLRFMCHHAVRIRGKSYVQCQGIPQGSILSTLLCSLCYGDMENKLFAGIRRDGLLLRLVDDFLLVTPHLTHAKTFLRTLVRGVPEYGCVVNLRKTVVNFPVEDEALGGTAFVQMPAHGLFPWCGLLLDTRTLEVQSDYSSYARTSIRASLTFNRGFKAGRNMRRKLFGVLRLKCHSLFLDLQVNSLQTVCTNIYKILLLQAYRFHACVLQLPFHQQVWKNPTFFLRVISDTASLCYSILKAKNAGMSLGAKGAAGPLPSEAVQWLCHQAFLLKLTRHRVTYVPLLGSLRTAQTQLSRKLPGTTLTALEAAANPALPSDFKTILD
# [8] = molecular target: T1, DNA polymerase I, thermostable (Thermus aquaticus, UniProt P19821); test: Tested for 50% inhibition against Taq DNA polymerase at the concentration of 20 uM; No inhibition
# T1 sequence (P19821 whole entry): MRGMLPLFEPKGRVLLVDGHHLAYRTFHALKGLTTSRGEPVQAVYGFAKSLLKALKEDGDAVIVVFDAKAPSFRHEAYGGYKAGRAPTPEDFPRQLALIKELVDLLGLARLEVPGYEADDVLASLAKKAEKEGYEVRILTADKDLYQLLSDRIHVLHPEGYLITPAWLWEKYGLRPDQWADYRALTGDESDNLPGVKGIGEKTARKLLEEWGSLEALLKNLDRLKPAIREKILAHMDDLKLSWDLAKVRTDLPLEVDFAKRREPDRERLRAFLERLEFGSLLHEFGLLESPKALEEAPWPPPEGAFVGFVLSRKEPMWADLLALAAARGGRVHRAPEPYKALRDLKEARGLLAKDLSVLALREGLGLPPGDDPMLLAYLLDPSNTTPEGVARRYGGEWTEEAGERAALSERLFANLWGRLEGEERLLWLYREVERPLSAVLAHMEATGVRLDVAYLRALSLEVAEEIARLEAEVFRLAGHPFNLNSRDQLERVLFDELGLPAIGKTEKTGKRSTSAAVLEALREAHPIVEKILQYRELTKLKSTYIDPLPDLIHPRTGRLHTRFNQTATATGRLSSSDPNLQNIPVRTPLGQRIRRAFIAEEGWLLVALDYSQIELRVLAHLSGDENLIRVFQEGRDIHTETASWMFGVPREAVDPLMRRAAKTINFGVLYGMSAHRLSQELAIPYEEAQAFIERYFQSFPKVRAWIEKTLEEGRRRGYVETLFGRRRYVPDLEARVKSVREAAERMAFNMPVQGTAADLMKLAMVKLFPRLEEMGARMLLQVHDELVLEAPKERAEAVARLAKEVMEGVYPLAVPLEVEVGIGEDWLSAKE
# [9] = test system: A549; test: Tested in vitro for inhibitory effect on the growth of human A-549 cancer cell line; assay type: functional, cell-based
# [10] = test system: WI-38; test: Tested in vitro for inhibitory effect on the growth of WI-38 cell line; No cytotoxicity; assay type: functional, cell-based, Homo sapiens
# [11] = molecular target: T1, DNA polymerase I, thermostable; test: Tested for 50% inhibition against Taq DNA polymerase at the concentration of 50 uM; No inhibition
# [12] = test system: SGC-7901; test: Tested in vitro for inhibitory effect on the growth of human gastric carcinoma SGC-7901 cell line; assay type: functional, cell-based
# [13] = test system: A549; test: The compound was tested in vitro for its cytotoxicity against human A-549 cancer cell line by MTT method at 1 uM concentration; Significant inhibition; assay type: functional, cell-based
# [14] = test system: HL-60; test: The compound was tested in vitro for its cytotoxicity against human HL-60 cancer cell line by MTT method at 1 uM concentration; Significant inhibition; assay type: functional, cell-based
# [15] = molecular target: T1, DNA polymerase I, thermostable; test: Tested for 50% inhibition against Taq DNA polymerase at the concentration of 10 uM; No inhibition
# [16] = test system: Bel-7402; test: Tested in vitro for inhibitory effect on the growth of BEL -7402 cell line; assay type: functional, cell-based; conditions: Homo sapiens
# [17] = test system: K562; test: Tested in vitro for inhibitory effect on the growth of K-562 cell line; assay type: functional, cell-based; conditions: Homo sapiens
# [18] = test system: MCF7; test: Tested in vitro for inhibitory effect on the growth of MCF-7 cell line; assay type: functional, cell-based; conditions: Homo sapiens
# [19] = test system: HL-60; test: The compound was tested in vitro for its cytotoxicity against human HL-60 cancer cell line by MTT method at 1 uM concentration; Total inhibition; assay type: functional, cell-based
# [20] = test system: P388; test: The compound was tested in vitro for its cytotoxicity against […] P-388 cancer cell line by MTT method at 1 uM concentration; Total inhibition; assay type: functional, cell-based
smiles,measurement,setting,value
CC(C)=CCC(OC(=O)c1ccccc1)C1=CC(=O)c2c(O)ccc(O)c2C1=O (centres undefined),Activity,[1],inactive
same,Activity,[2],inactive
same,Activity,[3],inactive
CC(C)=CC[C@H](O)C1=CC(=O)c2c(O)ccc(O)c2C1=O,Activity,[4],Slight inhibition
same,Activity,[5],Slight inhibition
same,Activity,[6],Slight inhibition
CC(=O)O[C@H](CC=C(C)C)C1=CC(=O)c2c(O)ccc(O)c2C1=O [ACETYLSHIKONIN],IC50,[7],37.3 µM
same,Activity,[6],Significant inhibition
same,IC50,[8],Not Active
same,IC50,[9],39 µM
same,IC50,[10],No cytotoxicity
same,IC50,[11],Not Active
same,IC50,[12],0.29 µM
same,Activity,[13],Significant inhibition
same,Activity,[14],Significant inhibition
same,IC50,[15],Not Active
same,IC50,[16],0.068 µM
same,IC50,[17],29 µM
same,IC50,[18],31 µM
CCCC(=O)OC(CC=C(C)C)C1=CC(=O)c2c(O)ccc(O)c2C1=O (centres undefined),Activity,[5],Slight inhibition
same,Activity,[2],inactive
same,Activity,[3],inactive
CC(C)=CCC(OC(=O)COCc1ccccc1)C1=CC(=O)c2c(O)ccc(O)c2C1=O (centres undefined),Activity,[2],inactive
same,Activity,[3],inactive
CC(C)=CCC(OC(=O)c1cccc2ccccc12)C1=CC(=O)c2c(O)ccc(O)c2C1=O (centres undefined),Activity,[5],Slight inhibition
same,Activity,[2],inactive
same,Activity,[3],inactive
CC(C)=CCC(O)C1=CC(=O)c2c(O)ccc(O)c2C1=O (centres undefined),Activity,[4],Slight inhibition
same,Activity,[5],Slight inhibition
same,Activity,[6],Slight inhibition
CC(C)=CCC(OC(=O)c1cccnc1)C1=CC(=O)c2c(O)ccc(O)c2C1=O (centres undefined),Activity,[5],Slight inhibition
same,Activity,[2],inactive
same,Activity,[3],inactive
CC(C)=CCC(OC(=O)CCCCC(C)C)C1=CC(=O)c2c(O)ccc(O)c2C1=O (centres undefined),Activity,[5],Significant inhibition
same,IC50,[9],0.016 µM
same,IC50,[10],No cytotoxicity
same,IC50,[12],0.001 µM
same,Activity,[13],Significant inhibition
same,Activity,[2],inactive
same,IC50,[16],0.00017 µM
same,IC50,[17],18 µM
same,IC50,[18],250 µM
CC(C)=CC[C@@H](O)C1=CC(=O)c2c(O)ccc(O)c2C1=O,Activity,[4],Slight inhibition
same,Activity,[5],Slight inhibition
same,Activity,[6],Slight inhibition
CC1(C)CC[C@H](C2=CC(=O)c3c(O)ccc(O)c3C2=O)O1,Activity,[19],Total inhibition
same,Activity,[20],Total inhibition
same,Activity,[3],inactive
CC(C)=CCC(OC(=O)COc1ccc2ccccc2c1)C1=CC(=O)c2c(O)ccc(O)c2C1=O (centres undefined),Activity,[5],Slight inhibition
same,Activity,[2],inactive
same,Activity,[3],inactive
CC(C)=CCC(OC(=O)Cc1c[nH]c2ccccc12)C1=CC(=O)c2c(O)ccc(O)c2C1=O (centres undefined),Activity,[5],Slight inhibition
same,Activity,[2],inactive
same,Activity,[3],inactive
CC1(C)CC[C@@H](C2=CC(=O)c3c(O)ccc(O)c3C2=O)O1,Activity,[19],Total inhibition
same,Activity,[20],Total inhibition
same,Activity,[3],inactive
CC(C)=CCC(OC(=O)c1ccc2ccccc2c1)C1=CC(=O)c2c(O)ccc(O)c2C1=O (centres undefined),Activity,[5],Slight inhibition
same,IC50,[9],390 µM
same,IC50,[10],No cytotoxicity
same,IC50,[12],49 µM
same,Activity,[2],inactive
same,IC50,[16],67 µM
same,IC50,[17],31 µM
same,IC50,[18],93 µM
same,Activity,[3],inactive
CCCCCCCCCCCC(=O)OC(CC=C(C)C)C1=CC(=O)c2c(O)ccc(O)c2C1=O (centres undefined),Activity,[4],Slight inhibition
same,Activity,[5],Slight inhibition
same,Activity,[2],inactive
